Experimental data from ChEMBL document CHEMBL3817836, “One small molecule as a theranostic agent: naphthalimide dye for subcellular fluorescence localization and photodynamic therapy in vivo” (Medchemcomm, 2016).
pIC50: −log10 of the molar value. Values belong to the compound of their own block, whether it stands above or below them. Calls of active or inactive are those of the source. No cut-off for these calls is given here.

Key:
[1] = Toxicity against human MCF7 cells assessed as reduction in cell viability measured after 48 hrs by MTT assay; type: cell-based
MCF7 [2] = assay: Photo-cytotoxicity against human MCF7 cells assessed as reduction in cell viability incubated for 48 hrs followed by 28.8 J/cm2 laser irradiation for 20 mins by MTT assay; type: functional, cell-based; conditions: MCF7, light or radiation study
MCF7 [3] = assay: Photo-cytotoxicity against human MCF7 cells assessed as induction of cell death incubated for 48 hrs followed by 28.8 J/cm2 laser irradiation dose 20 mins by MTT assay; type: functional, cell-based
MKN-45 = assay: Photo-cytotoxicity against human MKN45 cells assessed as induction of cell death incubated for 48 hrs followed by 28.8 J/cm2 laser irradiation dose 20 mins by MTT assay; type: functional, cell-based
HCT-116 = assay: Photo-cytotoxicity against human HCT116 cells assessed as induction of cell death incubated for 48 hrs followed by 28.8 J/cm2 laser irradiation dose 20 mins by MTT assay; type: functional, cell-based
A-375 [4] = assay: Photo-cytotoxicity against human A375 cells assessed as induction of cell death incubated for 48 hrs followed by 28.8 J/cm2 laser irradiation dose 20 mins by MTT assay; type: functional, cell-based
[5] = Cellular uptake in mitochondria of human […] cells at 2.5 uM incubated for 48 hrs followed by 28.8 J/cm2 laser irradiation for 20 mins by Mitotracker Red dye based confocal microscopy; type: ADME
[6] = Cellular uptake in endoplasmic reticulum of human […] cells at 2.5 uM incubated for 48 hrs followed by 28.8 J/cm2 laser irradiation for 20 mins by ER tracker Red dye based confocal microscopy; type: ADME, cell-based
A-375 [7] = assay: Antitumor activity against human A375 cells xenografted in nude mouse assessed as tumor size at 5 mg/kg administered twice week measured after 21 days (reference value: 4.31 +/- 0.38); type: functional
[8] = Cellular uptake in lysosome of human […] cells at 2.5 uM incubated for 48 hrs followed by 28.8 J/cm2 laser irradiation for 20 mins by lysosome Red dye based confocal microscopy; type: ADME, cell-based
[9] = Cellular uptake in nucleus of human […] cells at 2.5 uM incubated for 48 hrs followed by 28.8 J/cm2 laser irradiation for 20 mins by DAPI dye based confocal microscopy; type: ADME, cell-based
A-375 [10] = assay: Antitumor activity against human A375 cells xenografted in nude mouse exposed to 28.8 J/cm2 laser irradiation assessed as tumor size at 5 mg/kg administered twice week measured after 21 days (reference value: 4.31 +/- 0.38); type: functional
Mus musculus [11] = assay: Toxicity in nude mouse xenografted with human A375 cells exposed to 28.8 J/cm2 laser irradiation assessed as change in body weight at 5 mg/kg administered twice a week measured after 21 days; type: organism-based, A-375; conditions: in vivo, 504 h
Mus musculus [12] = assay: Toxicity in nude mouse xenografted with human A375 cells assessed as change in body weight at 5 mg/kg administered twice a week measured after 21 days; type: organism-based, A-375; conditions: in vivo, 504 h
Mus musculus [13] = assay: Toxicity in nude mouse xenografted with human A375 cells assessed as tissue lesions at 5 mg/kg by hematoxylin-eosin staining method; type: organism-based, A-375; conditions: in vivo
Mus musculus [14] = assay: Toxicity in nude mouse xenografted with human A375 cells exposed to 28.8 J/cm2 laser irradiation assessed as tissue lesions at 5 mg/kg by hematoxylin-eosin staining method; type: organism-based, A-375; conditions: in vivo
A-375 [15] = assay: Induction of apoptosis in human A375 cells exposed to 28.8 J/cm2 laser irradiation assessed as increase in intracellular ROS using DCFH-DA after 4 hrs by spectrofluorimetric method; type: functional, cell-based
A-375 [16] = assay: Induction of apoptosis in human A375 cells exposed to 28.8 J/cm2 laser irradiation assessed as increase in intracellular ROS using DCFH-DA after 12 hrs by spectrofluorimetric method; type: functional, cell-based
A-375 [17] = assay: Induction of apoptosis in human A375 cells exposed to 28.8 J/cm2 laser irradiation assessed as increase in caspase3 cleavage by western blot analysis; type: functional, cell-based; conditions: TDE = time-dependent effect
A-375 [18] = assay: Induction of apoptosis in human A375 cells exposed to 28.8 J/cm2 laser irradiation assessed as increase in PARP cleavage by western blot analysis; type: functional, cell-based; conditions: TDE = time-dependent effect
A-375 [19] = assay: Induction apoptosis in human A375 cells xenografted into nude mouse exposed to 28.8 J/cm2 laser irradiation assessed as increase in cleaved capase-3 level at 5 mg/kg administered twice week measured after 21 days by immunohistochemistry assay; type: functional, organism-based
A-375 [20] = assay: Induction of apoptosis in human A375 cells exposed to 28.8 J/cm2 laser irradiation assessed as nuclear condensation measured after 12 hrs by TUNEL assay; type: functional, cell-based
A-375 [21] = assay: Induction of apoptosis in human A375 cells exposed to 28.8 J/cm2 laser irradiation assessed as nuclear fragmentation measured after 12 hrs by TUNEL assay; type: functional, cell-based
A-375 [22] = assay: Induction of apoptosis in human A375 cells exposed to 28.8 J/cm2 laser irradiation assessed as apoptotic bodies measured after 12 hrs by TUNEL assay; type: functional, cell-based
A-375 [23] = assay: Induction apoptosis in human A375 cells xenografted into nude mouse exposed to 28.8 J/cm2 laser irradiation at 5 mg/kg administered twice week measured after 21 days by TUNEL assay; type: functional, organism-based
A-375 [24] = assay: Induction apoptosis in human A375 cells xenografted into nude mouse at 5 mg/kg administered twice week measured after 21 days by TUNEL assay; type: functional, organism-based
A-375 [25] = assay: Cellular uptake in human A375 cells at 2.5 uM incubated for 48 hrs followed by 28.8 J/cm2 laser irradiation for 20 mins by fluorescence microscopic imaging method; type: ADME, cell-based; conditions: a-375, 48 h

Compound: O=C1c2cccc3c2c(cc2c4cc(Br)ccc4sc32)C(=O)N1CCOCCO
IC50 at 48 h [1]: > 50 µM | pIC50 (MCF7 [2]): 4.73

Compound: O=c1c2ccc3sc4ccccc4c4ccc(c(=O)n1CCOCCO)c2c34
IC50 at 48 h [1]: 18.2 µM | pIC50 (MCF7 [2]): 5.85

Compound: O=C1c2cccc3c2c(cc2c4ccccc4sc32)C(=O)N1CCOCCO
IC50 at 48 h [1]: 18.8 µM | pIC50 (MCF7 [2]): 4.94

Drug uptake [5]: Active | Drug uptake [6]: Not Active | Drug uptake [8]: Not Active | Drug uptake [9]: Not Active | Drug uptake (A-375 [25]): Active
Compound: O=c1c2ccc3sc4ccc(Br)cc4c4ccc(c(=O)n1CCOCCO)c2c34
IC50 at 48 h [1]: > 50 µM | pIC50 (MCF7 [2]): 5.58 | Activity (MCF7 [3]): Dose-dependent effect | Activity (MKN-45): Dose-dependent effect | Activity (HCT-116): Dose-dependent effect | Activity (A-375 [4]): Dose-dependent effect | fold change (FC) (A-375 [7]): 3 | fold change (FC) (A-375 [10]): 0.5 | Activity (Mus musculus [11]): Non-toxic | Activity (Mus musculus [12]): Non-toxic | Activity (Mus musculus [13]): Toxic | Activity (Mus musculus [14]): Toxic | Activity (A-375 [15]): Active | Activity (A-375 [16]): inactive | Activity (A-375 [17]): tde | Activity (A-375 [18]): tde | Activity (A-375 [19]): Active | Activity (A-375 [20]): Active | Activity (A-375 [21]): Active | Activity (A-375 [22]): Active | Activity (A-375 [23]): Active | Activity (A-375 [24]): inactive
